Test system: Pieris rapae
Assay: Antifeeding activity against fifth-instar larvae Pieris rapae in compound treated Brassica oleracea L leaf disk at 500 ppm measured after 24 hr relative to control
Format: functional

Structure (SMILES)	FDI
C/C=C(\C)C(=O)O[C@H]1C[C@@H](OC(C)=O)[C@@]2(C(=O)OC)CO[C@H]3[C@@H](O)[C@@](C)([C@]45O[C@@]4(C)[C@@H]4C[C@H]5O[C@@H]5OC=C[C@@]54O)[C@H]4[C@]1(CO[C@]4(O)C(=O)OC)[C@@H]32 [AZADIRACHTIN A]	100%
C=C1[C@@H]([C@]2(C)[C@H]3CC(=O)O[C@@]3(C)CO[C@@H]2CC(=O)O)[C@@H](O)[C@H](OC(=O)C(O)C(C)C)[C@@]2(C)[C@H](c3ccoc3)[C@@H](O)[C@H]3O[C@]132 (stereo partly specified) [DYSOXYLUMIC ACID A]	78.7%
C=C1[C@@H]([C@]2(C)[C@H]3CC(=O)O[C@@]3(C)CO[C@@H]2CC(=O)O)[C@@H](O)[C@H](OC(=O)C(O)C(C)C)[C@@]2(C)[C@H](C3=CC(O)OC3=O)[C@@H](O)[C@H]3O[C@]132 (stereo partly specified) [DYSOXYLUMIC ACID B]	64.1%
C=C1[C@@H]2[C@@H](O[C@@H](CC(=O)O)[C@@]2(C)[C@H]2CC(=O)O[C@]2(C)CO)[C@H](OC(=O)C(O)C(C)C)[C@@]2(C)[C@H](c3ccoc3)[C@@H](O)[C@H]3O[C@]132 (stereo partly specified) [DYSOXYLUMIC ACID C]	59.4%
CC(=O)O[C@@H]1[C@H]2C(=C3[C@H](O)[C@H](O)[C@@H](c4ccoc4)[C@]3(C)[C@H]1OC(=O)C(O)C(C)C)COC(=O)C[C@@H](OC(=O)C(O)C(C)C)[C@@]2(C)[C@@H](CC(=O)O)C(C)(O)CO (stereo partly specified) [DYSOXYLUMIC ACID D]	29.5%
C=C1[C@@H]([C@@]2(C)[C@@H](OC(C)=O)CC(=O)O[C@](C)(COC(C)=O)[C@@H]2CC(=O)OC)[C@@H](OC=O)[C@H](OC(=O)[C@H](O)C(C)C)[C@@]2(C)[C@@H](c3ccoc3)[C@@H](OC(=O)[C@@H](C)CC)[C@H]3O[C@]132 [DYSOXYLUMINS A]	73.8%
C=C1[C@@H]([C@@]2(C)[C@@H](OC(C)=O)CC(=O)O[C@](C)(COC(C)=O)[C@@H]2CC(=O)OC)[C@@H](OC=O)[C@H](OC(=O)[C@H](O)C(C)C)[C@@]2(C)[C@@H](c3ccoc3)[C@@H](OC(=O)[C@H](OC(C)=O)C(C)C)[C@H]3O[C@]132 [DYSOXYLUMINS B]	77.4%
C=C1[C@@H]([C@@]2(C)[C@@H](OC(C)=O)CC(=O)O[C@](C)(COC(C)=O)[C@@H]2CC(=O)OC)[C@@H](OC=O)[C@H](OC(=O)[C@H](O)C(C)C)[C@@]2(C)[C@@H](c3ccoc3)[C@@H](OC(=O)[C@H](O)C(C)C)[C@H]3O[C@]132 [DYSOXYLUMINS C]	74.9%
C=C1[C@@H]2[C@@H](O[C@H]3CC(=O)O[C@@]4(C)COC(=O)C[C@@H]4[C@]32C)[C@H](OC(=O)C(O)C(C)C)[C@@]2(C)[C@H](c3ccoc3)[C@@H](OC(=O)C(O)C(C)C)[C@H]3O[C@]132 (stereo partly specified) [DYSOXYLUMOLIDE A]	27.9%
CC(C)C(O)C(=O)O[C@H]1[C@H](O)[C@H]2C(=C3[C@H](O)[C@H](O)[C@@H](c4ccoc4)[C@@]31C)COC(=O)C[C@@H](OC(=O)C(O)C(C)C)[C@@]2(C)[C@H]1CC(=O)OC[C@@]1(C)O (stereo partly specified) [DYSOXYLUMOLIDE B]	28.3%
CC(C)C(O)C(=O)OC(C(=O)O[C@@H]1[C@H](O)[C@@H]2[C@](C)(/C=C\C(=O)OC[C@@]2(C)O)[C@H]2CC[C@@]3(C)[C@H](c4ccoc4)OC(=O)[C@H]4O[C@]43[C@]12C)C(C)C (stereo partly specified) [DYSOXYLUMOLIDE C]	22.4%

From ChEMBL document CHEMBL3045995, “Novel antifeeding limonoids from Dysoxylum hainanense” (2002)
